Laboratory results: patent US4656142A, “Organometallic complexes of estrogens and their application to the determination of hormone receptors” (Centre National de la Recherche Scientifique, priority 1982, dated 1987)

Biological target: T1, estradiol receptor (Homo sapiens, UniProt P03372)
T1 construct: from tissue; host or cells: ewe uterine cytosol (inferred from the sister test)
Assay: ability to compete with estradiol for the receptor (log/logit curves, Rao et al.); relative binding affinity
Details: competition with estradiol, estradiol = 100
From the text: It must be point out that the further the RBA value (relative binding affinity) is from 100, the lower the competitiveness of the steroid tested.

T1 sequence (P03372 whole entry): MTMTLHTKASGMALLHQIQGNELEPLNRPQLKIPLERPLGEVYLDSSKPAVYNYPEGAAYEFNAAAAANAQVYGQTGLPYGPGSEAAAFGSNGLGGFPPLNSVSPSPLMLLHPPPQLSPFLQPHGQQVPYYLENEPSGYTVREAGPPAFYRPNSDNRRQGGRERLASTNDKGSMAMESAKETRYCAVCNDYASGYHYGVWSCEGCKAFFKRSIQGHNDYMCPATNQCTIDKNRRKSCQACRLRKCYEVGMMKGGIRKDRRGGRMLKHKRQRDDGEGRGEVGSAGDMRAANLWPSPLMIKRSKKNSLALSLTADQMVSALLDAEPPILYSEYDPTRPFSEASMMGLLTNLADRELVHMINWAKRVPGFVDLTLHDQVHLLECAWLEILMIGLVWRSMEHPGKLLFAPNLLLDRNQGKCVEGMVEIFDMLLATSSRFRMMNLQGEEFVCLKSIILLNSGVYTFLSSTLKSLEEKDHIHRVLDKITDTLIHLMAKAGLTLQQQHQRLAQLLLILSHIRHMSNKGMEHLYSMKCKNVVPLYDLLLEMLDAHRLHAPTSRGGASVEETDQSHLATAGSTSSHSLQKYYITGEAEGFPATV

CC(C)(C)[Si](C)(C)Oc1ccc2c(c1)CC[C@@H]1[C@@H]2CC[C@]2(C)[C@@H](O)CC[C@@H]12 [Compound 1, monosilylated β-estradiol]
RBA (%) (relative binding affinity): 11%
